Experimental data reported in patent US7524880B2, “Crystalline form of a substituted pyrrolidine compound” (Theravance, Inc., priority 2004, dated 2009).

Target: T1, hM2 receptor (Homo sapiens, UniProt P08172)
T1 construct: expressed in transfected cells; host or cells: CHO-K1 cells
T1 sequence (P08172 1-466): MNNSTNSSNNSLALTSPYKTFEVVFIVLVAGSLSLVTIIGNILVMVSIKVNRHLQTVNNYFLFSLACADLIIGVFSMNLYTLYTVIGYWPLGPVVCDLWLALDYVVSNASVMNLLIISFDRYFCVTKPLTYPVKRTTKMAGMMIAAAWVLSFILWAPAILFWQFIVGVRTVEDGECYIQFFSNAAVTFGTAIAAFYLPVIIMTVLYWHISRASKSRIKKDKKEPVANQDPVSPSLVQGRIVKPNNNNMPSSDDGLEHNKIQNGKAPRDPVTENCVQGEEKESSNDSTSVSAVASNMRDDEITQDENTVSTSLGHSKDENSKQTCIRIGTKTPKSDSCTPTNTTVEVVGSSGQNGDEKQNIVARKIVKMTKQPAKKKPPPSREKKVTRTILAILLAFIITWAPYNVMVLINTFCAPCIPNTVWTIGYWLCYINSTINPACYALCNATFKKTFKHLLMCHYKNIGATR
Assay: Blockade of agonist-mediated inhibition of cAMP accumulation
Type: cell-based
Conditions: CHO-K1 cells expressing the hM2 receptor; read-out: Ki value for blockade of oxotremorine-inhibition of forskolin-mediated cAMP accumulation
Protocol: A. Blockade of Agonist-Mediated Inhibition of cAMP Accumulation
In this assay, the functional potency of a test compound was determined by measuring the ability of the test compound to block oxotremorine-inhibition of forskolin-mediated cAMP accumulation in CHO-K1 cells expressing the hM2 receptor.
cAMP assays were performed in a radioimmunoassay format using the Flashplate Adenylyl Cyclase Activation Assay System with ^125I-cAMP (NEN SMP004B, PerkinElmer Life Sciences Inc., Boston, Mass.), according to the manufacturer's instructions.
Cells were rinsed once with dPBS and lifted with Trypsin-EDTA solution (0.05% trypsin/0.53 mM EDTA) as described in the Cell Culture and Membrane Preparation section above. […] The cell pellet was then re-suspended in 10 mL dPBS, and the cells were counted with a Coulter Z1 Dual Particle Counter (Beckman Coulter, Fullerton, Calif.). […]
Reactions were incubated for 10 minutes at 37° C. and stopped by addition of 100 μL ice-cold detection buffer. Plates were sealed, incubated overnight at room temperature and counted the next morning on a PerkinElmer TopCount liquid scintillation counter (PerkinElmer Inc., Wellesley, Mass.). The amount of cAMP produced (pmol/well) was calculated based on the counts observed for the samples and cAMP standards, as described in the manufacturer's user manual. […]

## CNCCCCCCCCN1CC[C@@H](C(C(N)=O)(c2ccccc2)c2ccccc2)C1 [compound of formula I, 2-[(S)-1-(8-methylaminooctyl)pyrrolidin-3-yl]-2,2-diphenylacetamide]
  Ki: < 5 nM
